# Assay results reported in patent US9770451B2, “Composition including ATM inhibitor for reducing cellular senescence and use of the composition” (Samsung Electronics Co., Ltd., priority 2014, dated 2017).
# Columns and labels:
# [1] = tested on: senescent fibroblasts (passage 37); test: Cell proliferation and formation of cell colonies (crystal violet staining); assay type: cell-based, human; settings: among 0.1, 0.5 and 2 μM
# Protocol: A human fibroblast cell line was inoculated into a Dulbecco's Modified Eagle's medium (DMEM) containing 10% fetal bovine serum (FBS), 100 units/ml of penicillin, and 100 μg/ml of streptomycin (wherein these two antibiotics were purchased from Gibro-BRL, Grand Island, N.Y.), and then, cultured in a 5% CO2 incubator at a temperature of 37° C. The fibroblast cell line (i.e., M11 strain) was a cell line derived from the foreskin of a child. When the cells were grown to about 85% confluency in a plate, the cells were subjected to subculture. The early subculture was carried out at a split ratio of 1:4, and the late subculture was carried out at a split ratio of 1:2. When the cell doubling time was 14 days, the cells were considered to be senescent fibroblasts (passages 35 to 37).
# To determine the optimal concentration upon the treatment with an ATM-kinase inhibitor KU-60019 (SELLECKCHEM, S1570, salt), the senescent fibroblasts (passage 37) were inoculated into each well of a 6-well plate at a concentration of 2,000 cells/well, and then, KU-60019 was added to each well of the 6-well plate ([…]). In addition, as a negative control group, the cells were cultured under the same conditions as described above, except that a medium used herein contained a dimethyl sulfoxide (DMSO) (0.05 (v/v) %) medium. […]
# [2] = tested on: senescent fibroblasts (passage 37); test: Soft agar assay for abnormal (cancer-like) proliferation; assay type: cell-based, human; settings: 0.5 μM, 4 weeks; 293T cells formed colonies
# Protocol: In addition, to confirm whether the cells proliferated by the culture proliferate abnormally, for example, proliferate like cancer cells, a soft agar assay was carried out. First, the DMEM medium containing 10% FBS was mixed with a 1.6% agar medium at a ratio of 1:1, so as to prepare a medium containing 0.8% agar formulation to coat the bottom of each well of a 6-well plate. […] As a control group, a 293T cell line (ATCC® CRL-11268™) from human embryonic kidney was used. […] The same procedure applies similarly to the remaining images b, c, and d. In FIG. 3, HDF M11 p37 refers to a human dermal fibroblast M11 strain, which is a sub-cultured fibroblast (passage 37). In FIG. 3, KU-60019-KU-60019 refers to a process of continuously adding KU-60019 to a medium and culturing for 28 days; KU-60019-DMSO refers to a process of adding KU-60019 to a medium and culturing for 14 days, removing KU-60019, and then, culturing the cells in the absence of KU-60019 for another 14 days; DMSO-DMSO refers to a condition where KU-60019 is not added at all and the cells cultured for 28 days. The 293T cells were cultured under the same condition as DMSO-DMSO, and then, applied to the soft agar assay.
# C57BL/6J mice = test: Wound healing assay (full-thickness punch-biopsy wounds); assay type: in vivo, mouse; settings: for closure difference between KU-60019-treated and DMSO-treated wounds: day 7; for mean wound closure: day 7, topical 5 μM in 30% Pluronic gel daily
# Protocol: To further test whether ATMi can promote cutaneous wounding healing in young (3 months old) and old (19 months old) male mice (C57BL/6J mice), four full-thickness punch-biopsy wounds (8 mm in diameter) were created on the dorsal skin of mouse (5 mice/experimental group), drug at a concentration of 5 μM KU-60019 in 30% Pluronic gel (Pluronic F-127 Sigma, P2443-1 KG) 0.5 mL was applied to wounds every day, and then covered the wounds with Telfa sponges (Kendall Health Care, Mansfield, Mass., USA). All animal studies were reviewed and approved by the […] Animal Care and Use Committee of SKKU School of Medicine (SUSM). SUSM is an Association for Assessment and Accreditation of Laboratory Animal Care international accredited facility and abides by the Institute for Laboratory Animal Research guide. Wounds were photographed for 10 days. Immunohistochemistry analyses were performed on 5 μm paraffin embedded sections as described previously (Lin et. al., 2004. Developmental Biology 270, 474-486). Primary antibodies used for immunohistochemistry were mouse anti-α-smooth muscle actin (Sigma, F3777-2ML, 1:500), and mouse anti-PCNA (Santa Cruz Biotechnology, SC-56, 1:500). Secondary antibodies used for immunohistochemistry were EnVision™ Detection System (DAKO, K5007). Masson-Trichrome staining was performed according to the manufacturer's instructions (Polysciences Inc., Warrington Pa., USA).
# To further test whether KU-60019 can promote cutaneous wounding healing in young (3 months old) and old (19 months old) mice, we created full-thickness punch-biopsy wounds 8 mm in diameter on the dorsal skin of 10 mice (5 mice/each group), applied to the wounds at a concentration of 5 μM KU-60019 in 30% Pluronic gel (Pluronic F-127 Sigma, P2443-1 KG), and then covered the wounds with Telfa sponges (Kendall Health Care, Mansfield, Mass., USA). Pluronic F-127 is a hydrogel widely used in pharmaceuticals as a drug delivery vehicle for a variety of soluble mediators, including antibodies, cytokines, and growth factors. […] Only 13.5% closure difference was shown between KU-60019-treated and DMSO-treated wounds. […] 20% closure difference was shown between KU-60019-treated and DMSO-treated wounds. […] KU-60019-treated wounds are capable of complete and efficient closure.
compound,measurement,setting,value
"C[C@@H]1CN(CC(=O)Nc2ccc3c(c2)Cc2cccc(-c4cc(=O)cc(N5CCOCC5)o4)c2S3)C[C@H](C)O1 [KU-60019, 2-((2S,6R)-2,6-dimethylmorpholino)-N-(5-(6-morpholino-4-oxo-4H-pyran-2-yl)-9H-thioxanthen-2-yl)acetamide]",most effective concentration selected,[1],0.5 µM
same,colony formation in soft agar,[2],colonies were not formed
same,closure difference between KU-60019-treated and DMSO-treated wounds,C57BL/6J mice; old mouse (19 months old),20%
same,mean wound closure,"C57BL/6J mice; old mouse (19 months old), control 49.4%",69.4%
same,closure difference between KU-60019-treated and DMSO-treated wounds,C57BL/6J mice; young mouse (3 months old),13.5%
same,mean wound closure,"C57BL/6J mice; young mouse (3 months old), control 74.1%",87.6%
